Patent publication US4849345A, “L-phenylalanine dehydrogenase and use thereof” (priority 1985, dated 1989)
Where two headings read alike, the source gives them in different places.

Columns and labels:
Assay type in all cases: biochemical
[1] = target: T1, L-phenylalanine dehydrogenase produced by Sporosarcina ureae SCRC-R04 (Sporosarcina ureae, UniProt P97014); experiment: biochemical; details: for activity at 1000 µM / Relative activity: not added = 100; for activity at 1000 µM: read-out: Relative activity
T1 sequence (P97014 1-379): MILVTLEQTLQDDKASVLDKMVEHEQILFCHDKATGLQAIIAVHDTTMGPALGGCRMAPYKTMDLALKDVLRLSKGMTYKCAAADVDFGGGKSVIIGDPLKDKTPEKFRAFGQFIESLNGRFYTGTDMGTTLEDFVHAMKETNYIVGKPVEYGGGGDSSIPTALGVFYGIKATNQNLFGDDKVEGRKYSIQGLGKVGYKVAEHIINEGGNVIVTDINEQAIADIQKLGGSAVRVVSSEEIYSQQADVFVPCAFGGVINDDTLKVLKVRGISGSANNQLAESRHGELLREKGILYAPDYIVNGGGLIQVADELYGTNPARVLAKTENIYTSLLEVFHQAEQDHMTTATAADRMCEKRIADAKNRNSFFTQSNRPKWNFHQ

[2] = target: T2, L-phenylalanine dehydrogenase produced by Bacillus sp. SCRC-R79a (Lysinibacillus sphaericus, UniProt P23307); experiment: Effect of metal ions and inhibitors on enzyme activity (Bacillus enzyme); parameters: inoculated with Bacillus sp; endogenous in cells; host or cells: Bacillus sp; enzyme purified in house; details: for activity at 1000 µM / Relative activity: not added = 100; for activity at 1000 µM: read-out: Relative activity
T2 sequence (P23307 1-381): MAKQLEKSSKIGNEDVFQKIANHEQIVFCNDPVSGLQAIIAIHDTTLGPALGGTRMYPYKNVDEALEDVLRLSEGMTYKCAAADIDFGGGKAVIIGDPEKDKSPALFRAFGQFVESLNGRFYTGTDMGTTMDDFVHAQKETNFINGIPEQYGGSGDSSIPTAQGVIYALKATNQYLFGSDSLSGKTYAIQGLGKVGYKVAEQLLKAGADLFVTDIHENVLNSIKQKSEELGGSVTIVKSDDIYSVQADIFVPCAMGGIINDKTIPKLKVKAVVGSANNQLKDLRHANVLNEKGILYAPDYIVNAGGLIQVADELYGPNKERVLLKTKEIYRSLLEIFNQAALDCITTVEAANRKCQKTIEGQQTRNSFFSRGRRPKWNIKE
Description: Unless otherwise described, the concentration of metal cations and inhibitors is 1 mM.

[3] = target: T1, L-phenylalanine dehydrogenase produced by Sporosarcina ureae SCRC-R04; experiment: Substrate and coenzyme specificity, oxidative deamination (Sporosarcina enzyme); details: oxidative deamination; for activity at 10000 µM: substrate concentration 10 mM, L-phenylalanine = 100, read-out: Relative activity (%)
Description: The substrate concentration is 10 mM, except for the L-tyrosine concentration which is 1.4 mM.

[4] = target: T2, L-phenylalanine dehydrogenase produced by Bacillus sp. SCRC-R79a; experiment: Substrate and coenzyme specificity, oxidative deamination (Bacillus enzyme); parameters: inoculated with Bacillus sp; endogenous in cells; host or cells: Bacillus sp; enzyme purified in house; details: for activity at 10000 µM: read-out: Relative activity (%)
Description: The substrate concentration is 10 mM except for the L-tyrosine concentration which is 1.4 mM.

CCN1C(=O)C=CC1=O [N--Ethylmaleimide, N-ethylmaleimide]
effect on enzyme activity (in words) [1]: inhibited | activity at 1000 µM ([1]; 1 mM): 21% | activity at 1000 µM ([2]; 1 mM): 162%

CC(C)C[C@H](N)C(=O)O [L--Leucine, L-leucine]
activity at 10000 µM [3]: 2.3% | action of the enzyme on the amino acid as substrate (in words) ([4]; oxidative deamination): cannot serve as a substrate

C[C@@H](O)[C@H](N)C(=O)O [L-threonine]
action of the enzyme on the amino acid as substrate (in words) [3]: cannot serve as a substrate | action of the enzyme on the amino acid as substrate (in words) ([4]; oxidative deamination): cannot serve as a substrate

CC(C)[C@H](N)C(=O)O [L--Valine, L-valine]
activity at 10000 µM [3]: 3.1% | action of the enzyme on the amino acid as substrate (in words) ([4]; oxidative deamination): cannot serve as a substrate

N[C@@H](CCC(=O)O)C(=O)O [L-glutamic acid]
action of the enzyme on the amino acid as substrate (in words) [3]: cannot serve as a substrate | action of the enzyme on the amino acid as substrate (in words) ([4]; oxidative deamination): cannot serve as a substrate

[Mg+2] [Mg^2+]
Relative activity ([1]; 1 mM): 90% | Relative activity ([2]; 1 mM): 99%

[Al+3] [Al^3+]
Relative activity ([1]; 1 mM): 153% | Relative activity ([2]; 1 mM): 99%

O=C(O)c1cc[c]([Hg][Cl])cc1 [PCMB]
effect on enzyme activity (in words) [1]: inhibited | Relative activity ([1]; 0.2 mM): 0% | effect on enzyme activity (in words) [2]: inhibited | Relative activity ([2]; 0.2 mM): 0%

CC[C@H](N)C(=O)O [L-α-amino-n-butyric acid]
action of the enzyme on the amino acid as substrate (in words) ([4]; oxidative deamination): cannot serve as a substrate

NC(C(=O)O)c1ccccc1 (racemic) [DL-phenylglycine]
action of the enzyme on the amino acid as substrate (in words) [3]: cannot serve as a substrate

[N-]=[N+]=[N-].[Na+] [NaN3]
Relative activity ([1]; 1 mM): 100% | Relative activity ([2]; 1 mM): 102%

[Ca+2] [Ca^2+]
Relative activity ([1]; 1 mM): 100% | Relative activity ([2]; 1 mM): 92%

CCSCC[C@H](N)C(=O)O [L--Ethionine, L-ethionine]
activity at 10000 µM [3]: 7% | activity at 10000 µM [4]: 3.1%

N=C(N)NCCC[C@H](N)C(=O)O [L-arginine]
action of the enzyme on the amino acid as substrate (in words) [3]: cannot serve as a substrate | action of the enzyme on the amino acid as substrate (in words) ([4]; oxidative deamination): cannot serve as a substrate

[Ba+2] [Ba^2+]
Relative activity ([1]; 1 mM): 106% | Relative activity ([2]; 1 mM): 93%

[Hg+2] [Hg^2+]
effect on enzyme activity (in words) [1]: inhibited | Relative activity ([1]; 0.01 mM): 0% | effect on enzyme activity (in words) [2]: inhibited | Relative activity ([2]; 0.01 mM): 38%

NC(=O)CC[C@H](N)C(=O)O [L-glutamine]
action of the enzyme on the amino acid as substrate (in words) [3]: cannot serve as a substrate | action of the enzyme on the amino acid as substrate (in words) ([4]; oxidative deamination): cannot serve as a substrate

NCCCC[C@H](N)C(=O)O [L-lysine]
action of the enzyme on the amino acid as substrate (in words) [3]: cannot serve as a substrate | action of the enzyme on the amino acid as substrate (in words) ([4]; oxidative deamination): cannot serve as a substrate

[Cd+2] [Cd^2+]
Relative activity ([1]; 1 mM): 70% | Relative activity ([2]; 1 mM): 102%

N[C@H](Cc1ccccc1)C(=O)O [D-phenylalanine]
action of the enzyme on the amino acid as substrate (in words) [3]: cannot serve as a substrate | action of the enzyme on the amino acid as substrate (in words) ([4]; oxidative deamination): cannot serve as a substrate

[Ni+2] [Ni^2+]
Relative activity ([1]; 1 mM): 100% | Relative activity ([2]; 1 mM): 100%

c1ccc(-c2ccccn2)nc1 [α,α'-Dipyridyl]
activity at 1000 µM ([1]; 1 mM): 124% | activity at 1000 µM ([2]; 1 mM): 104%

N[C@@H](CS)C(=O)O [L-cysteine]
action of the enzyme on the amino acid as substrate (in words) [3]: cannot serve as a substrate | action of the enzyme on the amino acid as substrate (in words) ([4]; oxidative deamination): cannot serve as a substrate

CC[C@H](C)[C@H](N)C(=O)O [L--Isoleucine, L-isoleucine]
activity at 10000 µM [3]: 0.54% | action of the enzyme on the amino acid as substrate (in words) ([4]; oxidative deamination): cannot serve as a substrate

CCC[C@H](N)C(=O)O [L--Norvaline, L-norvaline]
activity at 10000 µM [3]: 6.3% | activity at 10000 µM ([4]; oxidative deamination, substrate concentration 10 mM, L-phenylalanine = 100): 1.3%
